{"source": "patent EP1781294B1", "about": "“COMPOSITION FOR IMPROVED BIOAVAILABILITY AND ENHANCED BRAIN DELIVERY OF 5,5-DIPHENYL BARBITURIC ACID” (priority 2004, dated 2006)", "key": {"[1]": {"test": "Brain concentration of DPB after oral DPB or NaDPB and intravenous NaDPB", "format": "in vivo, Sprague-Dawley rats", "conditions": "150 mg/kg", "method": "(§1) We examined the delivery of DPB to the vascular compartment by administrating directly DPB and compared it with the sodium salt of DPB. This study compared the pharmacokinetics of DPB after oral administration of DPB (150 mg/kg) and sodium salt of DPB (150 mg/kg) in rats. Fifty-four rats were administered DPB and sodium salt of DPB by a single oral gavage (n=54). Blood samples were obtained (approximately 0.5 mL each) were collected following each treatment from animal via the jugular vein. Blood samplings from groups of 3 rats/sex/time point were collected at various times after dosing, in order to provide the complete time-points of pre-dose, 0, 0.5, 1, 2, 3, 4, 6, 12, 18, 24, 36 and 48 hours after dosing. Each blood sample was collected into a tube containing lithium heparin and the samples were spun in a refrigerated centrifuge. The resultant plasma was stored at -80°C prior to analysis. DPB was quantified in plasma using HPLC (LLOQ=0.25 µg/mL).\nIn this study, we measured the brain concentration of DPB. Brains were collected as soon as possible after euthanasia from each rat. They were stored in a freezer at -80°C prior to determination of DPB brain tissue concentrations. Table 6 summarizes the brain concentrations of DPB after oral administration of DPB and sodium salt of DPB in Sprague-Dawley rats."}, "[2]": {"conditions": "aqueous solution at pH 7; cited from earlier work"}, "[3]": {"system": "maximal electroshock seizure (MES)", "conditions": "cited from earlier work"}, "[4]": {"test": "Pharmacokinetics of DPB after oral DPB or NaDPB and intravenous NaDPB", "format": "in vivo, Sprague-Dawley rats", "conditions": "150 mg/kg; for AUC at 24 h: rat, in vivo, analyte DPB, read-out: AU0-24; for AUC0-t for DPB greater than after oral administration of DPB / Cmax for DPB greater than after oral administration of DPB: versus oral DPB", "method": "(§2) In accordance with the present invention, pharmacokinetic parameters were calculated using standard non-compartmental methods, as implemented in WinNonlin™ 4.0.1. […] The mean, SD and CV (%) were used to calculate the AUC0-t (µg.h/mL), Cmax (µg/ml) (the maximum observed concentration), Tmax (hours) (the time to reach that peak concentration) and Kel (the elimination rate constant) for each animal and each analyte.\n(§3) AUC0-t was calculated using the linear trapezoidal rule, which employs an approximate integration formula. The area of each trapezoid was calculated, and the sum of all the areas of all the trapezoids yielded an estimate of the true area under the curve. (See, Gibaldi et al. Pharmacokinetics. 2nd Ed. Marcel Dekker, Inc., 1982; Yeh et al., A comparison of numerical integrating algorithms by trapezoidal, lagrange, and spline approximations. J. Pharmacokinet Biopharm. 6: 79 (1978), the disclosure of which is herein incorporated by reference.) Cmax and Tmax were then determined for each concentration vs. time profile. Elimination rate constant (Kel) was calculated using regression analyses on the natural log (In) of plasma concentration values (y) versus time (x).\nas §1\nWe calculated AUC0-t for DPB at various times (24, 36 and 48 hours) after oral administrations of DPB and sodium salt of DPB. Table 5: AUCs at various times (24,36 and 48 hours) after Oral Administration of DPB and NaDPB in Beagle Dogs (75 mg/kg, n=28)"}, "[5]": {"test": "Pharmacokinetics of MMMDPB and DPB after oral MMMDPB or NaMMMDPB and intravenous NaMMMDPB", "format": "in vivo, Beagle dogs", "method": "as §2, §3\nBlood samples were obtained pre-dose and 0.25, 0.5, 1, 2, 3, 4, 6, 9, 12, 15, 18, and 24 hours after dosing. Venous blood (~1 mL) were drawn and collected in lithium heparin (anticoagulant). Blood samples were spun in a refrigerated centrifuge and plasma were stored at -80°C prior to analysis. […] Calibration curves were obtained using a weighted (1/C^2) least squares linear regression analysis of peak area ratio (analyte/internal standard) versus the nominal concentration of the calibration standards. Concentrations were obtained by interpolation from the run defined calibration curve. Regressions and figures were generated by PE Sciex Analyst Version 1.2 software.\nPlasma samples were thawed and subjected to solid phase extraction with 2 mL acetonitrile prior to HPLC method with Tandem Mass Spectrometry Detection. Chromatographic conditions were performed as followed: […]"}, "[6]": {"test": "Pharmacokinetics of DPB after oral DPB or NaDPB and intravenous NaDPB", "format": "in vivo, Beagle dogs", "conditions": "75 mg/kg, versus oral DPB free acid", "method": "as §2, §3\nWe examined the delivery of DPB to the vascular compartment by administrating directly DPB and compared it with the sodium salt of DPB in dogs. […] DPB was quantified in plasma using HPLC (LLOQ=0.25 µg/mL). […]"}, "[7]": {"conditions": "dog, in vivo, iv, 15 mg/kg, IV infusion, analyte DPB"}}, "note": "Like-named read-outs stand apart in the source and are kept apart here."}
{"smiles": "O=C1NC(=O)C(c2ccccc2)(c2ccccc2)C(=O)N1", "note": "[DPB, 5,5-diphenyl barbituric acid]", "values": [{"measurement": "Mean Brain Concentrations of DPB", "setting": "[1]; female, 24 hr", "result": 7.04, "unit": "µg/g"}, {"measurement": "Mean Brain Concentrations of DPB", "setting": "[1]; female, 36 hr", "result": 6.84, "unit": "µg/g"}, {"measurement": "Mean Brain Concentrations of DPB", "setting": "[1]; female, 48 hr", "result": 5.24, "unit": "µg/g"}, {"measurement": "Mean Brain Concentrations of DPB", "setting": "[1]; male, 24 hr", "result": 3.09, "unit": "µg/g"}, {"measurement": "Mean Brain Concentrations of DPB", "setting": "[1]; male, 36 hr", "result": 3.36, "unit": "µg/g"}, {"measurement": "Mean Brain Concentrations of DPB", "setting": "[1]; male, 48 hr", "result": "BQL"}, {"measurement": "Water solubility, less soluble as compared to phenobarbital", "setting": "[2]", "result": "1/100"}, {"measurement": "protection", "setting": "[3]; brain concentrations in excess of 10 µg/ml", "result": "≥ 50", "unit": "%"}, {"measurement": "protection", "setting": "[3]; brain concentrations of DPB less than 1 µg/ml", "result": "≤ 20", "unit": "%"}, {"measurement": "AUC at 24 h", "setting": "[4]; po, Oral, female", "result": 1210, "unit": "µg·h/mL"}, {"measurement": "AUC at 24 h", "setting": "[4]; po, Oral, male", "result": 623, "unit": "µg·h/mL"}]}
{"smiles": "COCN1C(=O)NC(=O)C(c2ccccc2)(c2ccccc2)C1=O", "note": "[MMMDPB, monomethoxymethyl-5,5-diphenyl barbituric acid]", "values": [{"measurement": "AUC(0-t)", "setting": "[5]; Oral, 30 mg/kg, analyte DPB", "result": 193.18, "unit": "µg·h/mL"}, {"measurement": "Tmax", "setting": "[5]; dog, in vivo, Oral, 30 mg/kg, analyte DPB", "result": 9.39, "unit": "h"}, {"measurement": "Cmax", "setting": "[5]; dog, in vivo, Oral, 30 mg/kg, analyte DPB, plasma, n=8", "result": 13.9, "unit": "µg/mL"}, {"measurement": "AUC(0-t)", "setting": "[5]; dog, in vivo, Oral, 30 mg/kg, analyte DPB, read-out: AUC0-t", "result": 193, "unit": "µg·h/mL"}]}
{"smiles": "O=C1NC(=O)C(c2ccccc2)(c2ccccc2)C(=O)N1.[Na]", "note": "[NaDPB, sodium 5,5-diphenyl barbiturate]", "values": [{"measurement": "AUC0-t for DPB greater than after oral administration of DPB", "setting": "[6]", "result": "~ 4 fold"}, {"measurement": "Cmax for DPB greater than after oral administration of DPB", "setting": "[6]", "result": "~ 3 fold"}, {"measurement": "AUC0-t for DPB greater than after oral administration of DPB", "setting": "[4]; Oral, female", "result": "~ 2 fold"}, {"measurement": "Cmax for DPB greater than after oral administration of DPB", "setting": "[4]; Oral, female", "result": "~ 1.5 fold"}, {"measurement": "AUC0-t for DPB greater than after oral administration of DPB", "setting": "[4]; Oral, male", "result": "~ 4.5 fold"}, {"measurement": "Cmax for DPB greater than after oral administration of DPB", "setting": "[4]; Oral, male", "result": "~ 2.5 fold"}, {"measurement": "AUC at 24 h", "setting": "[4]; iv, IV infusion, female", "result": 3400, "unit": "µg·h/mL"}, {"measurement": "AUC at 24 h", "setting": "[4]; iv, IV infusion, male", "result": 3160, "unit": "µg·h/mL"}, {"measurement": "AUC at 24 h", "setting": "[4]; po, Oral, female", "result": 1990, "unit": "µg·h/mL"}, {"measurement": "AUC at 24 h", "setting": "[4]; po, Oral, male", "result": 1710, "unit": "µg·h/mL"}]}
{"smiles": "COCN1C(=O)NC(=O)C(c2ccccc2)(c2ccccc2)C1=O", "note": "[NaMMMDPB, sodium monomethoxymethyl-5,5-diphenyt barbiturate]", "values": [{"measurement": "AUC(0-t)", "setting": "[5]; Oral, 30 mg/kg, analyte DPB", "result": 135.10, "unit": "µg·h/mL"}, {"measurement": "AUC(0-t)", "setting": "[5]; dog, in vivo, iv, 15 mg/kg, IV infusion, 15 mg/kg, analyte DPB, read-out: AUC0-t", "result": 59.4, "unit": "µg·h/mL"}, {"measurement": "Cmax", "setting": "[5]; [7]", "result": 8.6, "unit": "µg/mL"}, {"measurement": "Tmax", "setting": "[5]; [7]", "result": 3.13, "unit": "h"}, {"measurement": "AUC(0-t)", "setting": "[5]; dog, in vivo, po, 30 mg/kg, Oral, 30 mg/kg, analyte DPB, read-out: AUC0-t", "result": 135, "unit": "µg·h/mL"}, {"measurement": "AUC(0-t)", "setting": "[5]; dog, in vivo, po, 30 mg/kg, Oral, 30 mg/kg, analyte MMMDPB, read-out: AUC0-t", "result": 29.4, "unit": "µg·h/mL"}, {"measurement": "Tmax", "setting": "[5]; dog, in vivo, po, 30 mg/kg, analyte DPB", "result": 7.28, "unit": "h"}, {"measurement": "Cmax", "setting": "[5]; dog, in vivo, po, 30 mg/kg, analyte DPB, plasma, n=8", "result": 11.6, "unit": "µg/mL"}, {"measurement": "bioavailability", "setting": "[5]; dog, in vivo, Oral, 30 mg/kg, analyte DPB, read-out: F (absolute bioavailability)", "result": 315, "unit": "%"}]}
